The values that follow come from patent US11111264B2, “Morphic forms of 4-amino-7-(3,4-dihydroxy-5-(hydroxymethyl)tetrahydrofuran-2-yl)-2-methyl-7H-pyrrolo[2,3-d]pyrimidine-5-carboxamide and uses thereof” (Chimerix, Inc., priority 2017, dated 2021).

What all share (type): physicochemical
A short description of data set [1]: Dynamic vapor sorption (DVS). Conditions: 25° C.; for crystal form after DVS (PXRD): 50% to 0% to 95% to 50% relative humidity; for hygroscopicity (from DVS): mass as a function of relative humidity. The text has this: FIG. 20A is a DVS diagram of a sample of Compound 1, Form A as a function of time and the applied change in relative humidity. Line A represents the relative weight of the sample at each relative humidity. Line B represents the applied relative humidity (i.e., the applied measurement program). FIG. 20B is a DVS diagram of a sample of Compound 1, Form A as a function of the applied relative humidity. FIG. 20A and FIG. 20B were obtained using a Sorptions Prufsystem ProUmid system using a scan rate of 5% relative humidity per hour at a temperature of 25° C.
DVS measurements were performed with an SPS11-100n “Sorptions Prufsystem” of Projekt Messtechnik”, D-89077 Ulm (Germany). About 20 to 100 mg of sample were put into an aluminum sample pan. Humidity change rates of 5% per hour were used. The applied measurement program is visualized in the figures.

Data set [2] is described as follows: Suspension equilibration of Compound 1, Form A in organic solvents. The protocol:
Compound 1, Form A was stirred in methanol at room temperature for six days. […] At least 90% of Form A was still present.
Additionally, Compound 1, Form A was stirred in acetonitrile at a temperature ranging between 52° C. and 75° C. for five days.

Data set [3] in a line: Thermodynamic stability: stirring a mixture of Forms A-G in solvent/water, PXRD. The following applies: for PXRD after stirring mixture of Forms A, B, C, D, E, F and G: four days at room temperature. An excerpt: A mixture of Compound 1, Forms A, B, C, D, E, F and G was stirred in DMF/water 1:1 v/v (water activity about 0.79).
A mixture of Compound 1, Forms A, B, C, D, E, F and G was stirred in methanol/water 95:5 v/v (water activity about 0.18).

Regarding `Cc1nc(N)c2c(C(N)=O)cn([C@@H]3O[C@H](CO)[C@@H](O)[C@H]3O)c2n1` [Form B, 4-amino-7-((2R,3R,4S,5R)-3,4-dihydroxy-5-(hydroxymethyl)tetrahydrofuran-2-yl)-2-methyl-7H-pyrrolo[2,3-d]pyrimidine-5-carboxamide], in data set [1], the “crystal form after DVS (PXRD)” value is given as “transform in to Form A” and the “hygroscopicity (from DVS)” value is listed as “hygroscopic”.
In the case of `Cc1nc(N)c2c(C(N)=O)cn([C@@H]3O[C@H](CO)[C@@H](O)[C@H]3O)c2n1` [Form A, 4-amino-7-((2R,3R,4S,5R)-3,4-dihydroxy-5-(hydroxymethyl)tetrahydrofuran-2-yl)-2-methyl-7H-pyrrolo[2,3-d]pyrimidine-5-carboxamide], the “desorption of water (DVS)” value in data set [1] (0% R.H., 5% relative humidity per hour) is given as at most 0.1 % m/m. In data set [1], the “crystal form after DVS (PXRD)” value is recorded as “same pattern as the sample before DVS” and the “hygroscopicity (from DVS)” value is “non-hygroscopic”. Besides, the “resulting crystalline material (PXRD)” value in data set [2] (stirred in acetonitrile between 52° C. and 75° C. for five days) was “PXRD pattern similar to Compound 1, Form D”. In addition, the “Form A still present (PXRD)” value in data set [2] (stirred in methanol at room temperature for six days) is on record as “At least 90%”. Besides, the “PXRD after stirring mixture of Forms A, B, C, D, E, F and G” value in data set [3] (DMF/water 1:1 v/v (water activity about 0.79)) is on record as “only the peaks of crystal form A”. In data set [3] (conclusion from both slurry experiments), the “relative thermodynamic stability among the seven morphic forms” value was “most thermodynamically stable”. Further, the “PXRD after stirring mixture of Forms A, B, C, D, E, F and G” value in data set [3] (methanol/water 95:5 v/v (water activity about 0.18)) was “only the peaks of crystal form A”.
With `Cc1nc(N)c2c(C(N)=O)cn([C@@H]3O[C@H](CO)[C@@H](O)[C@H]3O)c2n1` [Form E, 4-amino-7-((2R,3R,4S,5R)-3,4-dihydroxy-5-(hydroxymethyl)tetrahydrofuran-2-yl)-2-methyl-7H-pyrrolo[2,3-d]pyrimidine-5-carboxamide], in data set [1], the “crystal form after DVS (PXRD)” value was “transformed into Form A” and the “hygroscopicity (from DVS)” value is given as “hygroscopic”.
In the same order, the values of `Cc1nc(N)c2c(C(N)=O)cn([C@@H]3O[C@H](CO)[C@@H](O)[C@H]3O)c2n1` [Form D, 4-amino-7-((2R,3R,4S,5R)-3,4-dihydroxy-5-(hydroxymethyl)tetrahydrofuran-2-yl)-2-methyl-7H-pyrrolo[2,3-d]pyrimidine-5-carboxamide] are “remained as Form D” and “hygroscopic”.
